Results as given in the NIST ThermoML archive (doi:10.1021/je1004092).

Tests used:
[1] = Crystal; Adiabatic calorimetry
[2] = Molar enthalpy of transition or fusion; details: Crystal; Adiabatic calorimetry
[3] = molar heat capacity at constant pressure; details: 101.33 kPa, Vacuum adiabatic calorimetry

O=C(N[C@@H](Cc1ccccc1)C(=O)O)OCc1ccccc1 [((benzyloxy)carbonyl)-L-phenylalanine]
Details | Molar enthalpy of transition or fusion [kcal/mol] | Triple point temperature [K]
[1] | – | 359.48
[2] | 7.597 | –

[3]
Details | molar heat capacity at constant pressure [J/K/mol]
79.13 K, Crystal | 109.2
81.17 K, Crystal | 111.4
84.32 K, Crystal | 114.7
87.26 K, Crystal | 119.7
90.2 K, Crystal | 124.4
93.15 K, Crystal | 128
96.1 K, Crystal | 130.2
99.05 K, Crystal | 132.6
103.16 K, Crystal | 135.7
107.22 K, Crystal | 140.4
110.14 K, Crystal | 143.8
113.08 K, Crystal | 146.3
116.03 K, Crystal | 149.3
119 K, Crystal | 150.1
121.92 K, Crystal | 156.4
124.86 K, Crystal | 158.7
127.83 K, Crystal | 160.7
130.81 K, Crystal | 161.9
133.81 K, Crystal | 165.1
136.78 K, Crystal | 168.9
139.76 K, Crystal | 171.3
142.78 K, Crystal | 172.5
145.75 K, Crystal | 176.2
148.7 K, Crystal | 181.2
152.53 K, Crystal | 181.4
156.3 K, Crystal | 185.2
159.2 K, Crystal | 189.8
162.16 K, Crystal | 191.9
165.09 K, Crystal | 194.2
168.09 K, Crystal | 197.5
171.13 K, Crystal | 198.8
174.16 K, Crystal | 201.1
177.16 K, Crystal | 206.1
180.14 K, Crystal | 209.9
183.11 K, Crystal | 211.4
186.05 K, Crystal | 211.8
188.97 K, Crystal | 218.1
191.95 K, Crystal | 219.3
194.98 K, Crystal | 223
198 K, Crystal | 226.3
201 K, Crystal | 229.2
204.65 K, Crystal | 233.5
208.28 K, Crystal | 236.2
211.23 K, Crystal | 238.9
214.17 K, Crystal | 242
217.09 K, Crystal | 248.7
220 K, Crystal | 250.5
222.89 K, Crystal | 252.5
225.77 K, Crystal | 254.9
228.72 K, Crystal | 256.4
231.73 K, Crystal | 258
234.73 K, Crystal | 260.1
237.77 K, Crystal | 264.5
240.78 K, Crystal | 266.6
244.33 K, Crystal | 268.1
247.89 K, Crystal | 270.2
250.89 K, Crystal | 273.1
253.88 K, Crystal | 277.4
256.87 K, Crystal | 280.9
259.83 K, Crystal | 282.4
262.79 K, Crystal | 286.2
265.74 K, Crystal | 290.4
268.67 K, Crystal | 292.7
271.58 K, Crystal | 297.9
274.49 K, Crystal | 302.3
277.38 K, Crystal | 301.8
280.25 K, Crystal | 307.3
283.12 K, Crystal | 314.7
286.09 K, Crystal | 319.9
289.05 K, Crystal | 323.8
291.98 K, Crystal | 326.7
295.01 K, Crystal | 330.1
298.06 K, Crystal | 333
301.11 K, Crystal | 336.5
304.15 K, Crystal | 339.5
307.19 K, Crystal | 340.6
310.22 K, Crystal | 343.9
313.24 K, Crystal | 348.3
316.26 K, Crystal | 351.4
319.27 K, Crystal | 353.7
322.27 K, Crystal | 358.3
325.27 K, Crystal | 362.5
328.25 K, Crystal | 367.6
331.24 K, Crystal | 371.4
334.21 K, Crystal | 375.1
337.17 K, Crystal | 380.6
340.13 K, Crystal | 389.8
343.07 K, Crystal | 396.6
345.97 K, Crystal | 418.3
348.88 K, Crystal | 508.8
361.43 K, Liquid | 549.6
364.56 K, Liquid | 551.9
367.7 K, Liquid | 552.7
370.83 K, Liquid | 553.6
373.95 K, Liquid | 554.9
377.05 K, Liquid | 555.6
380.13 K, Liquid | 557.1
383.21 K, Liquid | 558.5
386.33 K, Liquid | 560.8
389.43 K, Liquid | 562.4
392.55 K, Liquid | 563.6
395.55 K, Liquid | 564.8
